This note sets out measurements from US9539260B2, “Dihydro-benzo-oxazine and dihydro-pyrido-oxazine derivatives” (Novartis AG, priority 2012, dated 2017).

Assay [1] has as its target PI3K delta (Homo sapiens (Human), UniProt O00329). As to the kind of experiment: Enzymatic PI3K delta isoform inhibition (lipid kinase activity, Kinase-Glo luminescence). The assay is classed as biochemical. Conditions: Enzymatic assay. In outline: (§1)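 IC50s derive from 4-parameter logistic fits of % inhibition across 8 concentrations (usually 10 to 0.003 μM). Lipid kinase reaction: PI3K (10 nM) plus phosphatidylinositol (5 μg/mL) started with 2 μM ATP, stopped near 50% ATP depletion; leftover ATP quantified by Kinase-Glo luminescence.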
A general note: Kinase-Glo measures the ATP left after a reaction by luminescence.

The target of assay [2] is PI3K alpha (Homo sapiens (Human), UniProt P42336). Briefly: Enzymatic PI3K alpha isoform inhibition (lipid kinase activity, Kinase-Glo luminescence). The class given is biochemical. As to conditions: Enzymatic assay. In outline: as §1
Sequence of PI3K alpha (P42336 other isoform, or with tags, fused parts or gaps): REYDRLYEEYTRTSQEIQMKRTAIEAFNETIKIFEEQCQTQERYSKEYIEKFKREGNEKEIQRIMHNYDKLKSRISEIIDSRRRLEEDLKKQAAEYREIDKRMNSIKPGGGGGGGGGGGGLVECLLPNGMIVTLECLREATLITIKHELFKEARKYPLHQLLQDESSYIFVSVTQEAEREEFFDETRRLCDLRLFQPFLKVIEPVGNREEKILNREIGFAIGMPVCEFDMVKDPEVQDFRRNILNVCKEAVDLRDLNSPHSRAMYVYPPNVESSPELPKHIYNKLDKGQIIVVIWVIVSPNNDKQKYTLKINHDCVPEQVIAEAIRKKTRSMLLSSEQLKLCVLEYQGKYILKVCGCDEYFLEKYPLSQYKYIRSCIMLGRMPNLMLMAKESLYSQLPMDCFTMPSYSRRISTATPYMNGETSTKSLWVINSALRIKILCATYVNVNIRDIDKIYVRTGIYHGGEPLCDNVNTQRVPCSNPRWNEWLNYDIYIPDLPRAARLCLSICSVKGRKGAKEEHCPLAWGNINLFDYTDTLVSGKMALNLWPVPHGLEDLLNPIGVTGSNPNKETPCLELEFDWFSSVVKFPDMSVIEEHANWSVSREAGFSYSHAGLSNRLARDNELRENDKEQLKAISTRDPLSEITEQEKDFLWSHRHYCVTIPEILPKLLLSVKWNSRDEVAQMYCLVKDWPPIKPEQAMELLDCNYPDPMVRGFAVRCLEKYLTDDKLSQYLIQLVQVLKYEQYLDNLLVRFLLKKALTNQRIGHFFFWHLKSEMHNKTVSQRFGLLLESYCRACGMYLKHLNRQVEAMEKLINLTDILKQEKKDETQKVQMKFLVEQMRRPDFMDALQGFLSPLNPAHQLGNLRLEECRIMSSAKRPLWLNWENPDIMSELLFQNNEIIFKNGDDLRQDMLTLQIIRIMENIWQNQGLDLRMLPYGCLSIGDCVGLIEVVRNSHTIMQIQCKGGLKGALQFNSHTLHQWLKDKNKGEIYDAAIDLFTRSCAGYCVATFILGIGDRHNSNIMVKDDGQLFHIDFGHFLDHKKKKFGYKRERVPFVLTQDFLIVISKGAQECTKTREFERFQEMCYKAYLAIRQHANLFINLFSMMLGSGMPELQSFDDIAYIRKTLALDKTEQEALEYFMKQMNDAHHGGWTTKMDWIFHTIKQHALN

Sequence of PI3K delta (O00329 other isoform, or with tags, fused parts or gaps linker GGGGGG): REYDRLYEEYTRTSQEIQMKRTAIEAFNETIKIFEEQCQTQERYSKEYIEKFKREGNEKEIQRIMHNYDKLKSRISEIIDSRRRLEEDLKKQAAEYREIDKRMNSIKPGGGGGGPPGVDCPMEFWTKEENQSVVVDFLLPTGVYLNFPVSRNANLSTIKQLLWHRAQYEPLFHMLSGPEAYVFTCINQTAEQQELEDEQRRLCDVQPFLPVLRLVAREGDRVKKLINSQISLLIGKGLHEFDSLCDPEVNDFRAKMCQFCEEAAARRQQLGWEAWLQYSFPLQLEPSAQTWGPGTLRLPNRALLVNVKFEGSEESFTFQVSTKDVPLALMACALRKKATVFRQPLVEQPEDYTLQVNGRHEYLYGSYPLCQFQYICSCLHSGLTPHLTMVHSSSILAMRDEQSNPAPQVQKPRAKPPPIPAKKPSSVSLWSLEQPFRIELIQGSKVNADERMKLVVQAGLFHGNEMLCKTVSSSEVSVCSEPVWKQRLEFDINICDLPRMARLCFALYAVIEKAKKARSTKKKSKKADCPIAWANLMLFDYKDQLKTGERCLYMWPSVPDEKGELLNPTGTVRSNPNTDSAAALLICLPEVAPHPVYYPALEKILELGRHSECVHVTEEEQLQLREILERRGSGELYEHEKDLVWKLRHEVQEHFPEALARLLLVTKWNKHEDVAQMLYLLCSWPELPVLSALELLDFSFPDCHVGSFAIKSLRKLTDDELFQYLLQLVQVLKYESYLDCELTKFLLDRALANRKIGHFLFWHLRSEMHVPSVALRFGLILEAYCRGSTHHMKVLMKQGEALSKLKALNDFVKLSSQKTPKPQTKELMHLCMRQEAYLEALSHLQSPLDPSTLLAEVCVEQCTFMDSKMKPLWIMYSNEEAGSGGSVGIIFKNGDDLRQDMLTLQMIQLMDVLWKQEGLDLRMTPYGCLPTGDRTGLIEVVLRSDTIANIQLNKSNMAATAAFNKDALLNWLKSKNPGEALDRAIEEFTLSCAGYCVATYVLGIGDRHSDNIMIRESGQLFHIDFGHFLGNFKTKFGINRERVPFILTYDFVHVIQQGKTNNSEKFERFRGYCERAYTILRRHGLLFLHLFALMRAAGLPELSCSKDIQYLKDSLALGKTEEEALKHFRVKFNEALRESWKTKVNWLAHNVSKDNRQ

In the case of `COc1ncc(N2CCOc3ccc(O[C@H]4CCN(C(=O)C5CCS(=O)(=O)CC5)C4)cc32)cc1Cl` [Example B12, {(S)-3-[4-(5-Chloro-6-methoxy-pyridin-3-yl)-3,4-dihydro-2H-benzo[1,4]oxazin-6-yloxy]-pyrrolidin-1-yl}-(1,1-dioxo-hexahydro-1lambda*6*-thiopyran-4-yl)-methanone], the IC50 – broadly, the midpoint of a concentration-inhibition curve – in assay [1] turned out to be 11 nM; in assay [2], 365 nM.
Regarding `COc1ncc(N2CCOc3ccc(O[C@H]4CCN(C(=O)C5CCS(=O)(=O)C5)C4)cc32)cc1C` (stereo partly drawn) [Example B13, (1,1-Dioxo-tetrahydro-1lambda*6*-thiophen-3-yl)-{(S)-3-[4-(6-methoxy-5-methyl-pyridin-3-yl)-3,4-dihydro-2H-benzo[1,4]oxazin-6-yloxy]-pyrrolidin-1-yl}-methanone], the IC50 is 62 nM in assay [1] and 862 nM in assay [2].
Take `COc1ncc(N2CCOc3ccc(O[C@H]4CCN(C(=O)C5CCS(=O)(=O)CC5)C4)cc32)cc1C(F)(F)F` [Example B14, (1,1-Dioxo-hexahydro-1lambda*6*-thiopyran-4-yl)-{(S)-3-[4-(6-methoxy-5-trifluoromethyl-pyridin-3-yl)-3,4-dihydro-2H-benzo[1,4]oxazin-6-yloxy]-pyrrolidin-1-yl}-methanone]: the IC50 was found to be 6 nM in assay [1] and 244 nM in assay [2].
As to `COc1ncc(N2CCOc3ccc(O[C@H]4CCN(C(=O)C5CCOC5)C4)cc32)cc1C` (stereo partly drawn) [Example B15, {(S)-3-[4-(6-Methoxy-5-methyl-pyridin-3-yl)-3,4-dihydro-2H-benzo[1,4]oxazin-6-yloxy]-pyrrolidin-1-yl}-(tetrahydro-furan-3-yl)-methanone], the IC50 in assay [1] is 31 nM; in assay [2], 2650 nM.
With `COc1ncc(N2CCOc3ccc(O[C@H]4CCN(C(=O)C5CCOC5)C4)cc32)cc1C` (stereo partly drawn) [Example B16, {(S)-3-[4-(6-Methoxy-5-methyl-pyridin-3-yl)-3,4-dihydro-2H-benzo[1,4]oxazin-6-yloxy]-pyrrolidin-1-yl}-(tetrahydro-furan-3-yl)-methanone], the figures for the IC50 in assay [1] and in assay [2] were 37 nM and 4120 nM, respectively.
As for `CCOc1ncc(N2CCOc3ccc(O[C@H]4CCN(C(=O)C5CCS(=O)(=O)CC5)C4)cc32)cc1C` [Example B17, (1,1-Dioxo-hexahydro-1lambda*6*-thiopyran-4-yl)-{(S)-3-[4-(6-ethoxy-5-methyl-pyridin-3-yl)-3,4-dihydro-2H-benzo[1,4]oxazin-6-yloxy]-pyrrolidin-1-yl}-methanone], the IC50 turned out to be 23 nM in assay [1] and 2090 nM in assay [2].
For `COc1ncc(N2CCOc3ccc(O[C@H]4CCN(C(=O)C5CCOCC5)C4)cc32)cc1F` [Example B18], in that order: 12 nM and 723 nM.
Take `CCc1cc(N2CCOc3ccc(O[C@H]4CCN(C(=O)C5CCS(=O)(=O)CC5)C4)cc32)cnc1OC` [Example B19, (1,1-Dioxo-hexahydro-1lambda*6*-thiopyran-4-yl)-{(S)-3-[4-(5-ethyl-6-methoxy-pyridin-3-yl)-3,4-dihydro-2H-benzo[1,4]oxazin-6-yloxy]-pyrrolidin-1-yl}-methanone]: the IC50 was determined as 33 nM in assay [1] and 1160 nM in assay [2].
As for `COc1ncc(N2CCOc3ccc(O[C@H]4CCN(C(=O)c5cnn(C)c5)C4)cc32)cc1C` [Example B20, {(S)-3-[4-(6-Methoxy-5-methyl-pyridin-3-yl)-3,4-dihydro-2H-benzo[1,4]oxazin-6-yloxy]-pyrrolidin-1-yl}-(1-methyl-1H-pyrazol-4-yl)-methanone], the results for the IC50 in assay [1] and in assay [2] were 47 nM and 339 nM, respectively.
Turning to `COc1ncc(N2CCOc3ccc(O[C@H]4CCN(C(=O)c5ccn(C)n5)C4)cc32)cc1C` [Example B21, {(S)-3-[4-(6-Methoxy-5-methyl-pyridin-3-yl)-3,4-dihydro-2H-benzo[1,4]oxazin-6-yloxy]-pyrrolidin-1-yl}-(1-methyl-1H-pyrazol-3-yl)-methanone], the IC50 in assay [1] turned out to be 13 nM; in assay [2] it was 666 nM.
For the compound `Cc1cc(N2CCOc3ccc(O[C@H]4CCN(C(=O)c5ccncc5)C4)cc32)cnc1S(C)(=O)=O` [Example B22, {(S)-3-[4-(6-Methanesulfonyl-5-methyl-pyridin-3-yl)-3,4-dihydro-2H-benzo[1,4]oxazin-6-yloxy]-pyrrolidin-1-yl}-pyridin-4-yl-methanone], the results for the IC50 in assay [1] and in assay [2] were 5 nM and 589 nM, respectively.
As to `Cc1cc(N2CCOc3ccc(O[C@H]4CCN(C(=O)c5cncnc5)C4)cc32)cnc1S(C)(=O)=O` [Example B23, {(S)-3-[4-(6-Methanesulfonyl-5-methyl-pyridin-3-yl)-3,4-dihydro-2H-benzo[1,4]oxazin-6-yloxy]-pyrrolidin-1-yl}-pyrimidin-5-yl-methanone], the 50% inhibitory concentration (IC50) in assay [1] was determined as 28 nM; in assay [2] it was 1000 nM.
As to `Cc1cc(N2CCOc3ccc(O[C@H]4CCN(C(=O)c5cocn5)C4)cc32)cnc1S(C)(=O)=O` [Example B24, {(S)-3-[4-(6-Methanesulfonyl-5-methyl-pyridin-3-yl)-3,4-dihydro-2H-benzo[1,4]oxazin-6-yloxy]-pyrrolidin-1-yl}-oxazol-4-yl-methanone], the figures for the IC50 in assay [1] and in assay [2] were 8 nM and 212 nM, respectively.
Consider `Cc1cc(N2CCOc3ccc(O[C@H]4CCN(C(=O)c5cnco5)C4)cc32)cnc1S(C)(=O)=O` [Example B25, {(S)-3-[4-(6-Methanesulfonyl-5-methyl-pyridin-3-yl)-3,4-dihydro-2H-benzo[1,4]oxazin-6-yloxy]-pyrrolidin-1-yl}-oxazol-5-yl-methanone], for which the IC50 in assay [1] turned out to be 40 nM; in assay [2], 665 nM.
On the same counts, the results for `Cc1cc(N2CCOc3ccc(O[C@H]4CCN(C(=O)C5CCOC(C)(C)C5)C4)cc32)cnc1S(C)(=O)=O` (stereo partly drawn) [Example B26, (2,2-Dimethyl-tetrahydro-pyran-4-yl)-{(S)-3-[4-(6-methanesulfonyl-5-methyl-pyridin-3-yl)-3,4-dihydro-2H-benzo[1,4]oxazin-6-yloxy]-pyrrolidin-1-yl}-methanone] are less than 9 nM and 281 nM.
For the compound `CC(C)S(=O)(=O)c1cncc(N2CCOc3ccc(O[C@H]4CCN(C(=O)C5CCS(=O)(=O)CC5)C4)cc32)c1` [Example B29, (1,1-Dioxo-hexahydro-1lambda*6*-thiopyran-4-yl)-((S)-3-{4-[5-(propane-2-sulfonyl)-pyridin-3-yl]-3,4-dihydro-2H-benzo[1,4]oxazin-6-yloxy}-pyrrolidin-1-yl)-methanone], the results for the half-inhibitory concentration (IC50) in assay [1] and in assay [2] were 41 nM and 558 nM, respectively.
`Cc1cc(N2CCOc3ccc(O[C@H]4CCN(C(=O)C5CCOC5)C4)cc32)cnc1S(C)(=O)=O` (stereo partly drawn) [Example B31, {(S)-3-[4-(6-Methanesulfonyl-5-methyl-pyridin-3-yl)-3,4-dihydro-2H-benzo[1,4]oxazin-6-yloxy]-pyrrolidin-1-yl}-(tetrahydro-furan-3-yl)-methanone]: the half-inhibitory concentration (IC50) in assay [1] was found to be 3 nM; in assay [2] it was 977 nM.
With `COCC(=O)N1CC[C@H](Oc2ccc3c(c2)N(c2cnc(S(C)(=O)=O)c(C)c2)CCO3)C1` [Example B32, 1-{(S)-3-[4-(6-Methanesulfonyl-5-methyl-pyridin-3-yl)-3,4-dihydro-2H-benzo[1,4]oxazin-6-yloxy]-pyrrolidin-1-yl}-2-methoxy-ethanone], the concentration for half-maximal inhibition (IC50) in assay [1] stood at 36 nM; in assay [2] it was 369 nM.
As to `Cc1cc(N2CCOc3ccc(O[C@H]4CCN(C(=O)C(C)C)C4)cc32)cnc1S(C)(=O)=O` [Example B33, 1-{(S)-3-[4-(6-Methanesulfonyl-5-methyl-pyridin-3-yl)-3,4-dihydro-2H-benzo[1,4]oxazin-6-yloxy]-pyrrolidin-1-yl}-2-methyl-propan-1-one], the figures for the IC50 in assay [1] and in assay [2] were less than 9 nM and 610 nM, respectively.
Take `Cc1cc(N2CCOc3ccc(O[C@H]4CCN(C(=O)c5ccccc5)C4)cc32)cnc1S(C)(=O)=O` [Example B34, {(S)-3-[4-(6-Methanesulfonyl-5-methyl-pyridin-3-yl)-3,4-dihydro-2H-benzo[1,4]oxazin-6-yloxy]-pyrrolidin-1-yl}-phenyl-methanone]: the IC50 in assay [1] was 46 nM; in assay [2], 795 nM.
Turning to `Cc1cc(N2CCOc3ccc(O[C@H]4CCN(C(=O)C5CCS(=O)(=O)C5)C4)cc32)cnc1S(C)(=O)=O` (stereo partly drawn) [Example B35, (1,1-Dioxo-tetrahydro-1lambda*6*-thiophen-3-yl)-{(S)-3-[4-(6-methanesulfonyl-5-methyl-pyridin-3-yl)-3,4-dihydro-2H-benzo[1,4]oxazin-6-yloxy]-pyrrolidin-1-yl}-methanone], the IC50 in assay [1] stood at 27 nM; in assay [2], 1390 nM.
As to `Cc1cc(N2CCOc3ccc(O[C@H]4CCN(C(=O)C5COCCO5)C4)cc32)cnc1S(C)(=O)=O` (stereo partly drawn) [Example B36, [1,4]Dioxan-2-yl-{(S)-3-[4-(6-methanesulfonyl-5-methyl-pyridin-3-yl)-3,4-dihydro-2H-benzo[1,4]oxazin-6-yloxy]-pyrrolidin-1-yl}-methanone], the figures for the IC50 in assay [1] and in assay [2] were less than 3 nM and 801 nM, respectively.
For `COCCC(=O)N1CC[C@H](Oc2ccc3c(c2)N(c2cnc(S(C)(=O)=O)c(C)c2)CCO3)C1` [Example B37, 1-{(S)-3-[4-(6-Methanesulfonyl-5-methyl-pyridin-3-yl)-3,4-dihydro-2H-benzo[1,4]oxazin-6-yloxy]-pyrrolidin-1-yl}-3-methoxy-propan-1-one], in that order: 103 nM and 1100 nM.
As to `COc1cc(N2CCOc3ccc(O[C@H]4CCN(C(=O)C5CCOCC5)C4)cc32)cnc1OC` [Example B38, {(S)-3-[4-(5,6-Dimethoxy-pyridin-3-yl)-3,4-dihydro-2H-benzo[1,4]oxazin-6-yloxy]-pyrrolidin-1-yl}-(tetrahydro-pyran-4-yl)-methanone], the IC50 in assay [1] stood at 3 nM; in assay [2] it was 166 nM.
